Test results: the NIST ThermoML archive (doi:10.1021/je400077c)
± gives the expanded uncertainty stated by the source.

Key:
[1] = refractive index (Na D-line) (dimensionless); wn = mass fraction of the nth substance listed; conditions: 298.15 K, 101 kPa, Liquid, Standard Abbe refractometry
[2] = wn = mass fraction of the nth substance listed; conditions: 298.15 K, 101 kPa, Liquid; for viscosity: Capillary tube (Ostwald / Ubbelohde) method; for speed of sound: Linear variable-path acoustic interferometer; for mass density: Vibrating tube method

SMILES: [Ba+2].[Cl-].[Cl-] [barium chloride] + O
- refractive index ([1]; w1 = 0.01): 1.333 ± 0.0008
- refractive index ([1]; w1 = 0.03): 1.3337 ± 0.0008
- refractive index ([1]; w1 = 0.05): 1.3345 ± 0.0008
- viscosity ([2]; w1 = 0.01): 0.909 ± 0.008 mPa·s
- viscosity ([2]; w1 = 0.03): 0.915 ± 0.008 mPa·s
- viscosity ([2]; w1 = 0.05): 0.921 ± 0.008 mPa·s
- speed of sound ([2]; w1 = 0.01): 1516.7 ± 1.6 m/s
- speed of sound ([2]; w1 = 0.03): 1521.4 ± 1.6 m/s
- speed of sound ([2]; w1 = 0.05): 1525.3 ± 1.6 m/s
- mass density ([2]; w1 = 0.01): 997.56 ± 0.04 kg/m3
- mass density ([2]; w1 = 0.03): 998.66 ± 0.04 kg/m3
- mass density ([2]; w1 = 0.05): 999.74 ± 0.05 kg/m3
